{"source": "patent US20160333019A1", "about": "“SYNTHESIS AND FORMULATIONS OF PORPHYRIN COMPOUNDS” (Aeolus Sciences, Inc., priority 2013, published 2016)", "key": {"[1]": {"experiment": "Study 2: 75 mg/mL Formula (VI) in WFI at pH 7.0, 14 days at 60° C.", "assay_type": "physicochemical", "description": "The samples were filled in glass vials and capped with an air headspace. All samples were tested and evaluated for physicochemical stability under the storage conditions at 2-8 and 60° C. after 0, 3, 7 and 14 days.\nAbout 10 g of WFI was placed in the container including a stir bar.\nThe pH was measured at approximately hourly intervals and at about 16 hours and 24 hours. At the end of the 16-24 hour hold/mix, the pH of the solution was adjusted to pH 7.0 with either HCl or NaOH and mixed for approximately 15 minutes. The solution was filtered through a PVDF, 0.22 μm filter into a clean container and its pH measured.\nThe pH was measured at 30 minutes then hourly thereafter for the 16-24 hour time period. Once the solution pH and osmolality stabilized, the air sparging was stopped. The solution was adjusted to pH 7.0 with either HCl or NaOH and mixed for about 15 minutes. The solution was filtered through a PVDF, 0.22 μm filter into clean container and the pH measured.\nBoth samples were then stored at 60° C. and samples taken at 0, 3, 7 and 14 days from both containers and to measure pH. […]"}, "[2]": {"experiment": "Study 3: various strengths of Formula (VI) in WFI at pH 7.0, with and without ascorbic acid", "assay_type": "physicochemical", "description": "Ascorbic acid was also included in this study. […] The samples were tested and evaluated for physicochemical stability under 2-8 and 60° C. storage conditions after 0, 3, 7 and 14 days.\n(§1) About 10 g of WFI was placed in the container including a stir bar. […] The pH was measured and the solution was mixed at room temperature for 16-24 hours. At the end of the 16-24 hour hold/mix, the pH of solution was adjusted to pH 7.0 with either HCl or NaOH and mixed for about 15 minutes. The solution was filtered through a PVDF, 0.22 μm filter by discarding about 1 mL prior to placing about 9-10 mL into each of two separate clean containers. The pH of the samples was then measured.\nas §1, with “bar. […] About 0.1026 g of Ascorbic Acid was added to the container while mixing.” for “bar.”, “discarding” for “discarding about”\nas §1, with “bar. […] About 0.103 g of Ascorbic Acid was added to the container while mixing.” for “bar.”\nFollowing preparation of the solutions, one container of each of solutions 1-6 was stored at 2-8° C. The remaining containers for each of solutions 1-6 were stored at 60° C. From each container, a sample was taken at 0, 3, 7 and 14 days and the pH of the solution was measured."}}}
{"substance": "[5,10,15,20-tetrakis(1,3-diethylimidazolium-2-yl)porphyrinato]manganese(III) chloride hydrate complex [Formula (VI)]", "values": [{"measurement": "dependence of drug stability on pH", "setting": "[1]; 75 mg/mL in WFI, 2-8 and 60° C., 0, 3, 7 and 14 days", "value": "The lower the pH, the greater the drug stability"}, {"measurement": "pH decrease", "setting": "[1]; 75 mg/mL in water at pH 7.0, 60° C., after 14 days", "value": "1-2 pH units"}, {"measurement": "pH stability", "setting": "[1]; 75 mg/mL in water at pH 7.0, refrigerated condition", "value": "relatively stable"}, {"measurement": "chemical stability, air sparged versus non-sparged sample", "setting": "[1]; 75 mg/mL in water pH 7, 60° C.", "value": "better stability"}, {"measurement": "degradation lower than that from the control sample", "setting": "[1]; 75 mg/mL in water pH 7, all samples stored at 60° C., after 14 days", "value": "3-6%"}, {"measurement": "pH increase", "setting": "[2]; 100 mg/mL refrigerated sample without ascorbic acid, after 3 day storage", "value": "~1", "unit": "pH unit"}, {"measurement": "pH decrease compared to the control sample", "setting": "[2]; 100 mg/mL sample without ascorbic acid, 60° C., after 14 days", "value": "~2", "unit": "pH units"}, {"measurement": "degradation", "setting": "[2]; 65, 75, 100 mg/mL in water pH 7 containing ascorbic acid, 60° C., after 14 days", "value": "3-5%"}, {"measurement": "degradation", "setting": "[2]; 65, 75, 100 mg/mL in water pH 7 without ascorbic acid, 60° C., after 14 days", "value": "3-5%"}, {"measurement": "pH decrease", "setting": "[2]; 65 and 75 mg/mL samples without ascorbic acid, 60° C., after 14 days", "value": "~2", "unit": "pH units"}, {"measurement": "pH stability", "setting": "[2]; 65 and 75 mg/mL samples without ascorbic acid, refrigerated condition", "value": "relatively stable"}, {"measurement": "pH increase from initial pH", "setting": "[2]; all refrigerated samples containing ascorbic acid, after 14 days", "value": "~1.5", "unit": "pH units"}, {"measurement": "pH decrease from initial pH", "setting": "[2]; samples containing ascorbic acid, 60° C., after 3 days", "value": "~2", "unit": "pH units"}, {"measurement": "pH rise back", "setting": "[2]; samples containing ascorbic acid, 60° C., after 14 days", "value": "1-1.5 pH units"}]}
